Columns and labels:
[1] = test system: Akt phosphorylation in PA-induced insulin-resistant C2C12 cells; assay: Palmitic acid-induced insulin resistance in C2C12 myotubes (p-Akt); assay type: cell-based, mouse; conditions: PA (250 µM, 16 h)-treated C2C12, 5 μM compound for 30 min with 100 nM insulin
Protocol: Since insulin plays an important role in regulating glucose metabolism through the redistribution of GLUT4 from intracellular vesicles to the cell surface, it is important to describe the interaction between 1e and insulin in the Akt pathway. […] Next, we evaluated the protective effects of 1e against PA-induced insulin resistance in C2C12 myotubes. To generate an insulin resistance model, C2C12 myotubes were treated with 250 µM PA in a serum-free medium for 16 h. Akt phosphorylation levels in PA-treated C2C12 cells decreased by 50% compared to levels in normal C2C12 cells (Figure 6C). Furthermore, in the presence of insulin and GA, Akt phosphorylation levels decreased only by 30% compared to levels in normal cells. […] In addition, the GA analogs induced no cytotoxic effects in C2C12 muscle cells (data not shown). […] The expression levels of glucose uptake-related proteins were determined via Western blotting, as previously described. In brief, differentiated 3T3-L1 cells were plated in six-well plates at a 1.5 × 10^4 cells/well density in a final volume of 2 mL. […] Secondary antibodies were added to the membranes at a concentration of 1:2000 for 1 h at room temperature, and immunoreactive bands were detected via ECL (GE Healthcare Korea Co., Ltd., Incheon, Korea). […]

PPARγ = target: T1, PPARγ (Homo sapiens, UniProt P37231); assay: PPARγ PPRE-Luc reporter gene assay in CHO cells; assay type: cell-based; conditions: 50 μM
T1 construct: expressed in transfected cells; host or cells: CHO cells
T1 sequence (P37231 1-505): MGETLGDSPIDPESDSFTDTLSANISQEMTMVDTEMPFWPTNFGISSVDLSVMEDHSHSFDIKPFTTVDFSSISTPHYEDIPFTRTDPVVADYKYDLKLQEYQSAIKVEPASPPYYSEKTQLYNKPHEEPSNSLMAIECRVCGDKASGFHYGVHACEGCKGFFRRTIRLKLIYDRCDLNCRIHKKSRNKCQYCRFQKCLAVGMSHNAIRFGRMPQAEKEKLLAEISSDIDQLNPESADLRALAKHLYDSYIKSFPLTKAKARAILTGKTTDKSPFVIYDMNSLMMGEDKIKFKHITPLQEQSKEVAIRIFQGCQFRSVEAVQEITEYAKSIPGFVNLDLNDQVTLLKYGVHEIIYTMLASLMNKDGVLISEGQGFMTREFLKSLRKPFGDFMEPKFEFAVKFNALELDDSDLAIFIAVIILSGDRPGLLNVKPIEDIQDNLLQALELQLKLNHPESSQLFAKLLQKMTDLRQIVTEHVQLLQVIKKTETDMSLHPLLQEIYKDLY
Description: Glucose uptake is regulated by three major mechanisms. First, through the activation of the Akt pathway, which promotes GLUT4 translocation via the activation of the signaling cascade involving the insulin receptor substrate (IRS) family and PI3 kinase through […] or G-protein-coupled receptors (GPCRs); second, through the upregulation of AMPK phosphorylation, which increases glucose uptake by inducing GLUT4 translocation to the plasma membrane; third, through the promotion of GLUT4 expression by PPARγ ligands. […] However, these compounds may induce GLUT4 expression and improve insulin sensitivity in the treated cells through their interactions with GPCR and/or PPARγ. Among GPCRs highly expressed in 3T3-L1 adipocytes and C2C12 muscle cells, GPR120 is the receptor that is most closely associated with glucose uptake. […] This was performed following a previously described method. In brief, CHO cells were plated to 96-well white plates (REF3610, Corning Life Sciences, NY, USA) in DMEM (HyClone^TM, Cytivalifescience, Seoul, Korea) supplemented with 10% FBS and 1% penicillin at a density of 1.5 × 10^4 cells/well. […] After incubation for another 24 h, luciferase activity was measured using the dual-luciferase assay system (Promega Korea, Seoul, Korea) according to the manufacturer’s instructions. […]

| PPARγ transcriptional activity (PPRE-Luc) (PPARγ) | Compound | Akt phosphorylation in PA-induced insulin-resistant C2C12 cells [1] |
| --- | --- | --- |
| No significant change | CCCCCCCCCCCCCOc1cccc(O)c1C(=O)O [Compound 1e] | restoring it to levels similar to those in the non-insulin-resistant group |
| No significant change | CCCCCCCCCCCCCCCOc1cccc(O)c1C(=O)O [Compound 1f] | – |

Source: PMC8999917, “Structure–Activity Relationship of Synthetic Ginkgolic Acid Analogs for Treating Type 2 Diabetes by PTPN9 Inhibition” (International Journal of Molecular Sciences, 2022)
